Experimental data reported in ChEMBL document CHEMBL2401709 (J Med Chem, 2013).

Molecular target: Cyclin-dependent kinase 2/cyclin E1 (Homo sapiens, UniProt P24941)
Experiment: Inhibition of human recombinant CDK2/Cyclin E expressed in baculovirus infected sf9 cells using histone H1 as substrate
Conditions: not given

Row | SMILES | IC50 [nM]
1 | NC1CCC(Nc2nc(NCc3ccc(-c4ccccc4)nc3)c3ncn(C4CCCC4)c3n2)CC1 (centres undefined) | 31
2 | NC1CCC(Nc2nc(NCc3ccc(-c4ccccc4)cc3)c3ncn(C4CCCC4)c3n2)CC1 (centres undefined) | 26
3 | CC(C)(O)CNc1nc(NCc2ccc(-c3ccco3)nc2)c2ncn(C3CCCC3)c2n1 | 120

More lines, now with the values ahead:

Row | IC50 [nM] | SMILES
4 | 23 | OC1CCC(Nc2nc(NCc3ccc(-c4ccco4)nc3)c3ncn(C4CCCC4)c3n2)CC1 (centres undefined)
5 | 20.5 | Nc1ccccc1-c1ccc(CNc2nc(NC3CCC(N)CC3)nc3c2ncn3C2CCCC2)cc1 (centres undefined)
6 | 20 | NC1CCC(Nc2nc(NCc3ccc(-c4cccs4)cc3)c3ncn(C4CCCC4)c3n2)CC1 (centres undefined)
7 | 18 | Nc1ccccc1CNc1nc(NC2CCC(N)CC2)nc2c1ncn2C1CCCC1 (centres undefined)
8 | 13 | NC1CCC(Nc2nc(NCc3ccc(-c4ccoc4)cc3)c3ncn(C4CCCC4)c3n2)CC1 (centres undefined)
9 | 8 | NC1CCC(Nc2nc(NCc3cc(Cl)ccc3O)c3ncn(C4CCCC4)c3n2)CC1 (centres undefined)

Molecular target: Cyclin-dependent kinase 1 (Homo sapiens, UniProt P06493)
Sequence (P06493 whole entry): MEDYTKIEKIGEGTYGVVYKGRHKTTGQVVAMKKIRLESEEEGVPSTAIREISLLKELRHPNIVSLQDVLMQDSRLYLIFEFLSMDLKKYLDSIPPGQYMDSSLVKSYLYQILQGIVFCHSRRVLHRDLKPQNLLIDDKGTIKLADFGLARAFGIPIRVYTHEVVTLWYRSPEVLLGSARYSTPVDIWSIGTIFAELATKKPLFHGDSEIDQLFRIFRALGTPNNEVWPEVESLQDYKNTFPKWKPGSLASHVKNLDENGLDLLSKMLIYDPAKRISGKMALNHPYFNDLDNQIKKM
Experiment: Inhibition of human recombinant CDK1
Conditions: not given

Row | SMILES | IC50 [nM]
10 | NC1CCC(Nc2nc(NCc3ccc(-c4ccccc4)nc3)c3ncn(C4CCCC4)c3n2)CC1 (centres undefined) | 184
11 | CC(C)(O)CNc1nc(NCc2ccc(-c3ccco3)nc2)c2ncn(C3CCCC3)c2n1 | 555

Continued, values first:

Row | IC50 [nM] | SMILES
12 | 93 | Nc1ccccc1CNc1nc(NC2CCC(N)CC2)nc2c1ncn2C1CCCC1 (centres undefined)
13 | 23 | NC1CCC(Nc2nc(NCc3cc(Cl)ccc3O)c3ncn(C4CCCC4)c3n2)CC1 (centres undefined)

Tested on: HeLa
Experiment: Cytotoxicity against human HeLa cells assessed as growth inhibition after 72 hrs by calcein AM staining-based fluoroscence assay
Assay type: functional, cell-based
Conditions: not given

Row | SMILES | IC50 [nM]
14 | NC1CCC(Nc2nc(NCc3ccc(Br)cc3)c3ncn(C4CCCC4)c3n2)CC1 (centres undefined) | 1510
15 | CC[C@H](CO)Nc1nc(NCc2ccccc2)c2ncn(C(C)C)c2n1 [SELICICLIB] | 28600
16 | NC1CCC(Nc2nc(NCc3ccc(Br)nc3)c3ncn(C4CCCC4)c3n2)CC1 (centres undefined) | 633
17 | Nc1ccccc1-c1ccc(CNc2nc(NC3CCC(N)CC3)nc3c2ncn3C2CCCC2)cc1 (centres undefined) | 1010
18 | NC1CCC(Nc2nc(NCc3ccc(-c4ccoc4)cc3)c3ncn(C4CCCC4)c3n2)CC1 (centres undefined) | 140
19 | NC1CCC(Nc2nc(NCc3ccc(-c4ccccc4)nc3)c3ncn(C4CCCC4)c3n2)CC1 (centres undefined) | 114
20 | NC1CCC(Nc2nc(NCc3cc(Cl)ccc3O)c3ncn(C4CCCC4)c3n2)CC1 (centres undefined) | 750
21 | OC1CCC(Nc2nc(NCc3ccc(-c4ccco4)nc3)c3ncn(C4CCCC4)c3n2)CC1 (centres undefined) | 247
22 | Nc1ccccc1CNc1nc(NC2CCC(N)CC2)nc2c1ncn2C1CCCC1 (centres undefined) | 1030
23 | CC(C)(O)CNc1nc(NCc2ccc(-c3ccco3)nc2)c2ncn(C3CCCC3)c2n1 | 667
24 | NC1CCC(Nc2nc(NCc3ccc(-c4cccs4)cc3)c3ncn(C4CCCC4)c3n2)CC1 (centres undefined) | 358

Tested on: G-361
Experiment: Cytotoxicity against human G361 cells assessed as growth inhibition after 72 hrs by calcein AM staining-based fluoroscence assay
Assay type: functional, cell-based
Conditions: G-361, 72 h

Row | SMILES | IC50 [nM]
25 | NC1CCC(Nc2nc(NCc3ccc(Br)cc3)c3ncn(C4CCCC4)c3n2)CC1 (centres undefined) | 1480
26 | NC1CCC(Nc2nc(NCc3ccc(Br)nc3)c3ncn(C4CCCC4)c3n2)CC1 (centres undefined) | 640
27 | Nc1ccccc1-c1ccc(CNc2nc(NC3CCC(N)CC3)nc3c2ncn3C2CCCC2)cc1 (centres undefined) | 4120
28 | NC1CCC(Nc2nc(NCc3ccc(-c4ccoc4)cc3)c3ncn(C4CCCC4)c3n2)CC1 (centres undefined) | 670
29 | NC1CCC(Nc2nc(NCc3ccc(-c4ccccc4)nc3)c3ncn(C4CCCC4)c3n2)CC1 (centres undefined) | 895
30 | NC1CCC(Nc2nc(NCc3cc(Cl)ccc3O)c3ncn(C4CCCC4)c3n2)CC1 (centres undefined) | 390
31 | OC1CCC(Nc2nc(NCc3ccc(-c4ccco4)nc3)c3ncn(C4CCCC4)c3n2)CC1 (centres undefined) | 443
32 | Nc1ccccc1CNc1nc(NC2CCC(N)CC2)nc2c1ncn2C1CCCC1 (centres undefined) | 2070
33 | CC(C)(O)CNc1nc(NCc2ccc(-c3ccco3)nc2)c2ncn(C3CCCC3)c2n1 | 2100
34 | NC1CCC(Nc2nc(NCc3ccc(-c4cccs4)cc3)c3ncn(C4CCCC4)c3n2)CC1 (centres undefined) | 655

Tested on: HCT-116
Experiment: Cytotoxicity against human HCT116 cells assessed as growth inhibition after 72 hrs by calcein AM staining-based fluoroscence assay
Assay type: functional, cell-based
Conditions: HCT-116, 72 h

Row | SMILES | IC50 [nM]
35 | NC1CCC(Nc2nc(NCc3ccc(Br)cc3)c3ncn(C4CCCC4)c3n2)CC1 (centres undefined) | 790
36 | NC1CCC(Nc2nc(NCc3ccc(Br)nc3)c3ncn(C4CCCC4)c3n2)CC1 (centres undefined) | 577
37 | Nc1ccccc1-c1ccc(CNc2nc(NC3CCC(N)CC3)nc3c2ncn3C2CCCC2)cc1 (centres undefined) | 930
38 | NC1CCC(Nc2nc(NCc3ccc(-c4ccoc4)cc3)c3ncn(C4CCCC4)c3n2)CC1 (centres undefined) | 1040
39 | NC1CCC(Nc2nc(NCc3ccc(-c4ccccc4)nc3)c3ncn(C4CCCC4)c3n2)CC1 (centres undefined) | 563
40 | NC1CCC(Nc2nc(NCc3cc(Cl)ccc3O)c3ncn(C4CCCC4)c3n2)CC1 (centres undefined) | 350
41 | OC1CCC(Nc2nc(NCc3ccc(-c4ccco4)nc3)c3ncn(C4CCCC4)c3n2)CC1 (centres undefined) | 617
42 | Nc1ccccc1CNc1nc(NC2CCC(N)CC2)nc2c1ncn2C1CCCC1 (centres undefined) | 2300
43 | CC(C)(O)CNc1nc(NCc2ccc(-c3ccco3)nc2)c2ncn(C3CCCC3)c2n1 | 1270
44 | NC1CCC(Nc2nc(NCc3ccc(-c4cccs4)cc3)c3ncn(C4CCCC4)c3n2)CC1 (centres undefined) | 592

Tested on: HOS
Experiment: Cytotoxicity against human HOS cells assessed as growth inhibition after 72 hrs by calcein AM staining-based fluoroscence assay
Assay type: functional, cell-based
Conditions: not given

Row | SMILES | IC50 [nM]
45 | NC1CCC(Nc2nc(NCc3ccc(Br)cc3)c3ncn(C4CCCC4)c3n2)CC1 (centres undefined) | 995
46 | NC1CCC(Nc2nc(NCc3ccc(Br)nc3)c3ncn(C4CCCC4)c3n2)CC1 (centres undefined) | 935
47 | Nc1ccccc1-c1ccc(CNc2nc(NC3CCC(N)CC3)nc3c2ncn3C2CCCC2)cc1 (centres undefined) | 1880
48 | NC1CCC(Nc2nc(NCc3ccc(-c4ccoc4)cc3)c3ncn(C4CCCC4)c3n2)CC1 (centres undefined) | 140
49 | NC1CCC(Nc2nc(NCc3ccc(-c4ccccc4)nc3)c3ncn(C4CCCC4)c3n2)CC1 (centres undefined) | 206
50 | NC1CCC(Nc2nc(NCc3cc(Cl)ccc3O)c3ncn(C4CCCC4)c3n2)CC1 (centres undefined) | 490
51 | OC1CCC(Nc2nc(NCc3ccc(-c4ccco4)nc3)c3ncn(C4CCCC4)c3n2)CC1 (centres undefined) | 180
52 | Nc1ccccc1CNc1nc(NC2CCC(N)CC2)nc2c1ncn2C1CCCC1 (centres undefined) | 2030
53 | CC(C)(O)CNc1nc(NCc2ccc(-c3ccco3)nc2)c2ncn(C3CCCC3)c2n1 | 560
54 | NC1CCC(Nc2nc(NCc3ccc(-c4cccs4)cc3)c3ncn(C4CCCC4)c3n2)CC1 (centres undefined) | 247

Tested on: MCF7
Experiment: Cytotoxicity against human MCF7 cells assessed as growth inhibition after 72 hrs by calcein AM staining-based fluoroscence assay
Assay type: functional, cell-based
Conditions: MCF7, 72 h

Row | SMILES | IC50 [nM]
55 | NC1CCC(Nc2nc(NCc3ccc(Br)cc3)c3ncn(C4CCCC4)c3n2)CC1 (centres undefined) | 850
56 | CC[C@H](CO)Nc1nc(NCc2ccccc2)c2ncn(C(C)C)c2n1 [SELICICLIB] | 12300
57 | NC1CCC(Nc2nc(NCc3ccc(Br)nc3)c3ncn(C4CCCC4)c3n2)CC1 (centres undefined) | 483
58 | Nc1ccccc1-c1ccc(CNc2nc(NC3CCC(N)CC3)nc3c2ncn3C2CCCC2)cc1 (centres undefined) | 977
59 | NC1CCC(Nc2nc(NCc3ccc(-c4ccoc4)cc3)c3ncn(C4CCCC4)c3n2)CC1 (centres undefined) | 247
60 | NC1CCC(Nc2nc(NCc3ccc(-c4ccccc4)nc3)c3ncn(C4CCCC4)c3n2)CC1 (centres undefined) | 483
61 | NC1CCC(Nc2nc(NCc3cc(Cl)ccc3O)c3ncn(C4CCCC4)c3n2)CC1 (centres undefined) | 430
62 | OC1CCC(Nc2nc(NCc3ccc(-c4ccco4)nc3)c3ncn(C4CCCC4)c3n2)CC1 (centres undefined) | 390
63 | Nc1ccccc1CNc1nc(NC2CCC(N)CC2)nc2c1ncn2C1CCCC1 (centres undefined) | 2330
64 | CC(C)(O)CNc1nc(NCc2ccc(-c3ccco3)nc2)c2ncn(C3CCCC3)c2n1 | 1300
65 | NC1CCC(Nc2nc(NCc3ccc(-c4cccs4)cc3)c3ncn(C4CCCC4)c3n2)CC1 (centres undefined) | 290

Tested on: K562
Experiment: Cytotoxicity against human K562 cells assessed as growth inhibition after 72 hrs by calcein AM staining-based fluoroscence assay
Assay type: functional, cell-based
Conditions: K562, 72 h

Row | SMILES | IC50 [nM]
66 | NC1CCC(Nc2nc(NCc3ccc(Br)cc3)c3ncn(C4CCCC4)c3n2)CC1 (centres undefined) | 1170
67 | NC1CCC(Nc2nc(NCc3ccc(Br)nc3)c3ncn(C4CCCC4)c3n2)CC1 (centres undefined) | 1180
68 | Nc1ccccc1-c1ccc(CNc2nc(NC3CCC(N)CC3)nc3c2ncn3C2CCCC2)cc1 (centres undefined) | 1110
69 | NC1CCC(Nc2nc(NCc3ccc(-c4ccoc4)cc3)c3ncn(C4CCCC4)c3n2)CC1 (centres undefined) | 287
70 | NC1CCC(Nc2nc(NCc3cc(Cl)ccc3O)c3ncn(C4CCCC4)c3n2)CC1 (centres undefined) | 690
71 | OC1CCC(Nc2nc(NCc3ccc(-c4ccco4)nc3)c3ncn(C4CCCC4)c3n2)CC1 (centres undefined) | 303
72 | Nc1ccccc1CNc1nc(NC2CCC(N)CC2)nc2c1ncn2C1CCCC1 (centres undefined) | 4040
73 | CC(C)(O)CNc1nc(NCc2ccc(-c3ccco3)nc2)c2ncn(C3CCCC3)c2n1 | 1420
74 | NC1CCC(Nc2nc(NCc3ccc(-c4cccs4)cc3)c3ncn(C4CCCC4)c3n2)CC1 (centres undefined) | 307
